Here are results for 1 molecule from patent US20230349922A1, “H2 Blockers Targeting Liver Macrophages for the Prevention and Treatment of Liver Disease and Cancer” (Université de Strasbourg, priority 2020, published 2023).

Each structure is given as a SMILES string.

One data set concerns Huh7.5.1dif cells. Description: IL6 and TNFα expression by qRT-PCR in HCV-infected Huh7.5.1dif cells. The format is cell-based, human. As for the experimental part:
FIG. 8. The Huh7.5.1^dif Cell-Based System Recapitulates Transcriptional Dysregulations in Human Macrophages. (A-B) HRH2 knockdown leads to CREB5 downregulation in Huh7.5.1^dif cells similar to macrophages. Macrophages (A) and Huh7.5.1^dif cells (B) were transfected with siRNA CTRL or targeting HRH2 expression and activated using LPS+IFNγ or HCV-infection respectively. HRH2, CREB5 expression and the HCV viral load were analyzed by qRT-PCR. (Macrophage=three independent experiments n=8; Huh7.5.1^dif cells=two independent experiments n=6). (C) Nizatidine treatment decreases IL6 and TNF expression in Huh7.5.1^dif cells similar to macrophage. Huh7.5.1^dif cells were HCV infected and treated with nizatidine. IL6 and TNFα expression were analyzed by qRT-PCR. […]
Real-Time qRT-PCR. cDNAs were synthetized by reverse transcription using SuperScript III First-Strand Synthesis SuperMix (Life Technologies). Expression of […] IL6, TNFα and IL1β was analyzed by quantitative real-time PCR using TaqMan Gene Expression Assays (Thermo Fisher Scientific) on the CFX96 Touch Real-Time PCR Detection System PCR system (Bio-Rad). Expression of human CCL2 and TGF was analyzed using iTaq™ Universal SYBR® Green Supermix (Bio-Rad). The 2^−ΔCT method was used for relative quantification (Schmittgen and Livak, Nature Protoc., 2008, 3: 1101-1108) of mRNA with normalization to 18S. […]

For data set [1], the system named is tumor associated macrophages (TAMs). The experiment in a line: IL6 expression in M1-polarized tumor associated macrophages from patient HCCs. The class given is cell-based, human. The following applies: patient-derived tumor macrophages. The procedure:
FIG. 5. Effect of Nizatidine and HRH2 KO on Cytokine Expression in a Cell Culture Model for M1 Macrophages. (A) Representative picture of differentiated macrophages. To generate macrophage-like cells (MO), THP-1 cells were treated with PMA for 24 hours. To generate M1-polarized THP-1 macrophages, THP-1 cells were treated with PMA plus LPS and IFNγ. M1-polarized THP-1 were treated with nizatidine for 48 hours. (B) Gene expression of different cytokines was measured by qRT-PCR. Results are expressed as mean+s.e.m from 3 independent experiments performed in triplicate. * denotes p<0.05; ** denotes p<0.01; *** denotes p<0.001. (C) Representative picture of M1 differentiated patient-derived Kupffer cells. To generate M1-polarized macrophages, patient Kupffer cells were treated with LPS and IFNγ. (D) Gene expression of different cytokines was measured by qRT-PCR. Results are expressed as mean+s.d. from one experiment performed in duplicate. (E) IL6 expression in M1-polarized tumor associated macrophages (TAMs) isolated from different patient HCCs and treated with nizatidine. Results are expressed as mean+/−SD from one experiment performed in triplicate or quadruplicate. […] KO efficacy was assessed at genetic level by T7 endonuclease assay. […] Right: Pro-inflammatory cytokines and markers expression were analyzed by qRT-PCR (mean+/−SD n=3, one representative experiment out of two is shown).

In data set [2] the test system is prognostic liver signature (PLS). The experiment in a line: cPLS model: reversal of the prognostic liver signature in HCV-infected Huh7.5.1dif cells. The class given is cell-based, human. The following applies: Huh7.5.1dif cells infected with HCV Jc1 for 7 days, treated 3 additional days; GSEA.
Another data set relates to intracellular cAMP. Description: Intracellular cAMP level by ELISA in HCV-infected Huh7.5.1dif cells. The class given is cell-based, human. The following applies: increase following induction of the poor-prognosis PLS (HCV Jc1 5 days), nizatidine 3 more days. The procedure:
ELISA Assay. To assess the HCV infection and nizatidine treatment on intracellular cAMP level, Huh7.5.1^dif cells were infected with HCV Jc1 for 5 days and were incubated for 3 more days with nizatidine or DMSO as a control. The cAMP level was measured by ELISA assay using the cAMP Parameter Assay Kit (R&D System) according to manufacturer's instructions.
A general note: Cyclic AMP is a second messenger, typically raised through Gs and lowered through Gi signalling.

For data set [3], the system named is patient-derived Kupffer cells. Description: Cytokine expression by qRT-PCR in M1 differentiated patient-derived Kupffer cells. To be noted: Kupffer cells isolated from patient tissues, LPS + IFNγ, nizatidine 30 μM 48 hours. The format is cell-based, human. The procedure: Real-Time qRT-PCR. cDNAs were synthetized by reverse transcription using SuperScript III First-Strand Synthesis SuperMix (Life Technologies). Expression of […] IL6, TNFα and IL1β was analyzed by quantitative real-time PCR using TaqMan Gene Expression Assays (Thermo Fisher Scientific) on the CFX96 Touch Real-Time PCR Detection System PCR system (Bio-Rad). Expression of human CCL2 and TGF was analyzed using iTaq™ Universal SYBR® Green Supermix (Bio-Rad). The 2^−ΔCT method was used for relative quantification (Schmittgen and Livak, Nature Protoc., 2008, 3: 1101-1108) of mRNA with normalization to 18S. The 2^−ΔCT method was used for relative quantification (Schmittgen and Livak, Nature Protoc., 2008, 3: 1101-1108) of mRNA with normalization to GAPDH mRNA. Isolation and Treatment of Patient-Derived Kupffer Cells. Kupffer cells were isolated as previously described (Kegel et al., J. Vis. Exp., 2016, 109: e53069) from liver tissue of patients without history of chronic liver disease. Briefly, the non-parenchymal cell populations (NPCs) were purified by serial centrifugation followed by separation of Kupffer cells, exploiting fast attachment of primary macrophages to plastic within 20 minutes. Cells were cultured in RPMI 1640 Medium with GlutaMAX™-I supplement and HEPES and supplemented with 10% FBS and gentamycin (0.05 mg/mL). […]
Background: In qPCR the cycle at which signal appears reflects the starting amount.

Data set [4] has as its system primary human hepatocytes (PHH). The experiment in a line: Cell viability of primary human hepatocytes in 3D culture. The format is cell-based. The following applies: 4 days after nizatidine treatment, compared to DMSO. As for the experimental part:
FIG. 9. Proof-of-concept for Therapeutic Impact of Nizatidine in Patient-Derived HCC Spheroids. (A) Absent effect on cell viability in PHH, assessed 4 days after nizatidine treatment in 3D culture. […] (B) Nizatidine decreases HCC cell viability in a 3D patient-derived tumorspheroid model. HCC spheroids were generated from patient HCC tissues with different etiologies. Cell viability was assessed 4 days after treatment by measuring ATP levels. […] The pictures show representative image of patient-derived tumorspheroids (magnification X40). NASH=non-alcoholic steatohepatitis; ALD=alcoholic liver disease. Source data are provided as a Source Data file.

`CNC(=C[N+](=O)[O-])NCCSCc1csc(CN(C)C)n1` [Nizatidine, N-[2-[[[2-[(dimethylamino)methyl]-4-thizaolyl]methyl]thio]ethyl]-N′-methyl-2-nitro-1,1-ethene-diamine]: in the data set with Huh7.5.1dif cells, the IL6 expression entry is given as “decreased” and the TNFα expression entry was “decreased”. For the same molecule, the “pro-inflammatory cytokine expression (IL6)” value in data set [1] is given as “direct effect”. In data set [2], the “reversal of the poor prognosis status of the prognostic liver signature (PLS)” value is reported as “PLS-reversing compounds with highest statistical significance”. Also, the “intracellular cAMP level” value with intracellular cAMP was “reverted”. The pro-inflammatory cytokine expression result in data set [3] is “direct effect”. Besides, the PHH viability entry in data set [4] is reported as “no effect”.
